Read-outs that look alike come from different tables or passages of the source.
Tests used:
[1] = Stability in 45° C. oven, CPP content; format: physicochemical; details: raw material, comparison
Procedure: The moisture content, CPP content and redissolving time were determined for CPP freeze-dried composition hydrated with saturated sodium chloride solution in the freeze-drying box, respectively. In addition, the CPP freeze-dried compositions hydrated for 16 h and 24 h were placed in 45° C. oven and sampled for determining CPP contents after 1 week and 2 weeks, respectively.
Moisture content, CPP content and redissolving time were determined for CPP freeze-dried composition hydrated with saturated sodium chloride solution in the dryer, respectively. In addition, the CPP freeze-dried composition hydrated for 16 h was placed in 45° C. oven, sampled after 1 week and 2 weeks, respectively and determined for CPP contents. The CPP freeze-dried composition hydrated for 16 h was placed in 40° C./75% RH stability test chamber, was sampled after 1 month and 3 months, and determined for CPP contents, which were compared with CPP monohydrate obtained by prior art hydrating process.
The moisture content, CPP content and redissolving time were determined for CPP freeze-dried composition hydrated with saturated potassium sulfate solution in the dryer, respectively. In addition, the CPP freeze-dried composition hydrated for 16 h was placed in 45° C. oven and was sampled for determining CPP contents after 1 week and 2 weeks, respectively. […]

[2] = Stability in 40° C./75% RH stability test chamber, CPP content; format: physicochemical; details: raw material, comparison
Procedure: The CPP freeze-dried composition hydrated for 16 h was placed in 40° C./75% RH stability test chamber, was sampled after 1 month and 3 months, and determined for CPP contents, which were compared with CPP monohydrate obtained by prior art hydrating process.
The CPP freeze-dried composition hydrated for 16 h was placed in 40° C./75% RH stability test chamber, sampled after 1 month and 3 months for determining CPP contents.

[3] = format: physicochemical; details: no hydration solution
Procedure: The hydrated CPP freeze-dried composition was stirred by weighting scoop gently until flowable powder comes into being. Then 1-2 g test sample was added on injection plate. Test method and parameters were as follows:
It will be understood by a person of ordinary skill in the art that a common approach to defining the distribution width is to cite three values on the x-axis, the D10, D50, and D90. As used herein, the term (“D50” refers to the median particle diameter, wherein half of the particle population has a diameter below such value. As used herein, the teed “D90,” refers to the particle diameter wherein 90% of the particle population has a diameter below such value. As used herein, the term “D10,” refers to the particle diameter wherein 10% of the particle population has a diameter below such value. PSD results were listed in Table 19.

[4] = Skeletal density (gas pycnometer); format: physicochemical; details: no strength, no hydration solution
Procedure: Skeletal Density, also known as true density, is determined at room temperature by Gas Pycnometer (Micromeritics Accupyc II 1340).

[5] = format: physicochemical; details: hydration pressure 50 kPa
[6] = format: physicochemical; details: no strength, no hydration solution
Procedure: TD of the test sample is measured as per the Method I described in USP <616> which is obtained by mechanically tapping a graduated measuring cylinder (TAP Density Tester, Sotax TD2) containing the test sample.

[7] = format: physicochemical; details: strength NA, hydration solution NA
Procedure: BD is calculated by the following formula: BD (g/mL)=W/V0 • wherein • W is the theoretical weight, g; • V0 is the macroscopic volume, mL. • V0 is calculated by the following formula: V0 (mL)=πD^2h/4 • wherein • D is the theoretical inside diameter, cm; • h is the height, cm.

[8] = format: physicochemical; details: hydration solution NA, 0.9% sodium chloride, 250 rpm, room temperature
Procedure: Then the glass vial was placed on cyclotron (HY-5, Shanghai Suhao intelligent system Co. Ltd) making the glass vial oscillate at 250 rpm at room temperature to dissolve the active ingredient completely. The redissolving time was recorded in Table 18.

[9] = format: physicochemical; details: reconstituted with 0.9% sodium chloride injection to 20 mg/ml
Procedure: Then content and impurity profiles in Room Temperature (RT) and Refrigerator (2-8° C.) are determined respectively.

## O=P1(N(CCCl)CCCl)NCCCO1 (stereo not shown) [CPP monohydrate raw material, Cyclophosphamide monohydrate]
[1]
  Stability-CPP content % 45° C.-2 weeks: 101.8%
[2]
  Stability-CPP content % 40° C./75% RH-3 months: 86.1%

## O=P1(N(CCCl)CCCl)NCCCO1 (stereo not drawn) [P—[N,N-bis(β-chloroethyl)]-1-oxa-3-aza-2-phosphocyclohexane-P-oxide]
[3]
  D10 (μm): 5.6 μm
  D50 (μm): 34.8 μm
  D90 (μm): 262.0 μm
[4]
  Skeletal Density: 1.4286 g/mL
[5]; 45° C. -1 Week
  Content (%): 82.6%
  Impurity A (%): 0.65%
  Impurity B (%): 0.61%
  Impurity D (%): 0.71%
  Max. individual unknown impurity (%): 2.01%
  Total impurities (%): 5.66%
[5]; 45° C. -2 Weeks
  Content (%): 45.8%
  Impurity A (%): 1.82%
  Impurity B (%): 1.40%
  Impurity D (%): 0.98%
  Max. individual unknown impurity (%): 1.56%
  Total impurities (%): 15.59%
[6]
  Tapped Density: 0.9369 g/mL
[7]
  Bulk Density: 0.6246 g/mL
[8]; strength 0.5 g
  Redissolving Time: 8.7 min
[8]; strength 1 g
  Redissolving Time: 11.2 min
[8]; strength 2 g
  Redissolving Time: 16.4 min
[9]; 0 h (initial)
  Impurity A: 0.03
  Impurity B: 0.03
  Impurity D: 0.00
  Individual unknown impurity: 0.08
  Total impurities: 0.15
[9]; 3 Days (2-8° C.)
  Content: 96.7%
  Impurity A: 0.00
  Impurity B: 0.45
  Impurity D: 0.00
  Individual unknown impurity: 0.09
  Total impurities: 0.57
[9]; 6 Days (2-8° C.)
  Content: 95.2%
  Impurity A: 0.00
  Impurity B: 0.64
  Impurity D: 0.00
  Individual unknown impurity: 0.12
  Total impurities: 0.77
[9]; 6 h (RT)
  Content: 95.3%
  Impurity A: 0.00
  Impurity B: 0.71
  Impurity D: 0.00
  Individual unknown impurity: 0.06
  Total impurities: 0.81
[9]; 12 h (RT)
  Content: 96.7%
  Impurity A: 0.00
  Impurity B: 1.01
  Impurity D: 0.05
  Individual unknown impurity: 0.14
  Total impurities: 1.33
[9]; 24 h (RT)
  Content: 97.0%
  Impurity A: 0.03
  Impurity B: 1.82
  Impurity D: 0.30
  Individual unknown impurity: 0.47
  Total impurities: 2.64
